The test system of data set [1] is HIV. The data set is classed as cell-based. The settings on record: ratio CD50/ED50. As to the method: (§1) The anti-HIV assays were based on the inhibition of the virus-induced cytopathic effect in MT-4 cells as a described method in J. Med. Chem, 34, 357, 1991. Briefly, MT-4 cells were suspended in culture medium at 2.5×10^5 cells/ml and infected with 1000 CCID50 (50% cell culture infective dose) of HIV. Immediately, after virus infection, 100 μl of the cell suspension was brought into each well of a flat-bottomedmicrotitray containing various concentrations of the test compounds. After a 4 or 5 days incubation at 37° C., the number of viable cells was determined by the 3-(4,5-dimethylthiazol-2-yl)-2,5-diphenyltetrazolium bromide (MTT) method, as disclosed in J. Virol. Methods, 20, 309, 1988. The cytotoxicity of the compounds of the present invention was assessed in parallel with their antiviral activity. It was based on the viability of mock-infected host cells as determined by the MTT methods.

Data set [2] concerns MT-4 cells. The data set can be described thus: cytotoxicity: viability of mock-infected MT-4 host cells (MTT method). It counts as cell-based. On the set-up: unit not given here. Particulars: mock-infected MT-4 cells. As to the method: as §1
On the technique in general: Formazan colour is commonly taken as a measure of viable cells.

Setting [3] is: marker b (undefined, shared with AZT^b).
[4] abbreviates: marker c (undefined, shared with AZT^c).
Where [5] appears, read: marker a (undefined, shared with AZT^a).
[6] abbreviates: marker d (undefined, shared with AZT^d).
Setting [7] is: marker e (undefined, shared with AZT^e).

Like-named read-outs stand apart in the source and are kept apart here. Bounds are passed on as bounds.

On to `CCc1c(Sc2cc(C)cc(C)c2)n(CC2=CCC(CO)(CO)C2)c(=O)[nH]c1=O` [Example 25, 1-{[4-Bis(hydroxymethyl)cyclopent-1-en-1-yl]methyl}-5-ethyl-6-(3,5-dimethyl-phenylthio)-2,4-pyrimidinedione], for which the S.I. in data set [1] (no run marker) was 2,762. The CD50 in data set [2] (no run marker) was found to be 14.64.
Turning to `Cc1cc(C)cc(Sc2c(C(C)C)c(=O)[nH]c(=O)n2CC2CCCC2)c1` [Example 20, 1-[(Cyclopentyl)methyl]-5-isopropyl-6-(3,5-dimethyphenylthio)-2,4-pyrimidinedione], the S.I. in data set [1] (setting [3]) is reported as 24,264. In data set [2] (setting [3]), this molecule showed a CD50 of 11.38.
As for `Cc1cc(C)cc(Sc2c(C(C)C)c(=O)[nH]c(=O)n2CC2CC2(CO)CO)c1` (centres unmarked) [Example 53, 1-[2-Bis(hydroxymethyl)cyclopropane-1-yl]methyl-5-isopropyl-6-(3,5-dimethylphenylthio)-2,4-pyrimidinedione], the S.I. in data set [1] (setting [4]) is given as 7,199. Further, the CD50 in data set [2] (setting [4]) was determined as 13.39.
For the molecule `Cc1cn([C@H]2C[C@H](N=[N+]=[N-])[C@@H](CO)O2)c(=O)[nH]c1=O` [AZT, reference compound], the S.I. in data set [1] (setting [5]) was 5,825; in data set [1] (setting [3]) it was 1,123; in data set [1] (setting [4]), 83; in data set [1] (setting [6]), 5,500; in data set [1] (setting [7]), 3,172; in data set [1] (no run marker), 2,633. In addition, the CD50 in data set [2] (setting [5]) is 1.13; in data set [2] (setting [3]) it was 0.73; in data set [2] (setting [4]) it was 0.057; in data set [2] (setting [6]), 2.75; in data set [2] (setting [7]) it was 1.84; in data set [2] (no run marker), 1.58.
For `Cc1cc(C)cc(Oc2c(C(C)C)c(=O)[nH]c(=O)n2CC2CC2(CO)CO)c1` (centres unmarked) [Example 54, 1-[2-Bis(hydroxymethyl)cyclopropane-1-yl]methyl-5-isopropyl-6-(3,5-dimethylphenoxy)-2,4-pyrimidinedione], the S.I. in data set [1] (setting [4]) is on record as 3,004. The molecule also gave a CD50 in data set [2] (setting [4]) of 7.69.
The corresponding values for `CCc1c(Oc2cc(C)cc(C)c2)n(CC2CC2(CO)CO)c(=O)[nH]c1=O` (centres unmarked) [Example 50, 1-[2-Bis(hydroxymethyl)cyclopropane-1-yl]methyl-5-ethyl-6-(3,5-dimethylphenoxy)-2,4-pyrimidinedione] are 7,763 and 111.79.
On to `CCc1c(C(=O)c2cc(C)cc(C)c2)n(CC2CC2(CO)CO)c(=O)[nH]c1=O` (centres unmarked) [Example 51, 1-[2-Bis(hydroxymethyl)cyclopropane-1-yl]methyl-5-ethyl-6-(3,5-dimethylbenzoyl)-2,4-pyrimidinedione], for which the S.I. in data set [1] (setting [4]) is recorded as 12,165. This molecule yielded a CD50 in data set [2] (setting [4]) of 128.95.
With `Cc1cc(C)cc(C(=O)c2c(C(C)C)c(=O)[nH]c(=O)n2CC2CC2(CO)CO)c1` (centres unmarked) [Example 55, 1-[2-Bis(hydroxymethyl)cyclopropane-1-yl]methyl-5-isopropyl-6-(3,5-dimethylbenzoyl)-2,4-pyrimidinedione], the S.I. in data set [1] (setting [4]) is on record as 21,806. This molecule yielded a CD50 in data set [2] (setting [4]) of 131.71.
With `CCc1c(C(=O)c2cc(C)cc(C)c2)n(CC2CCCC2)c(=O)[nH]c1=O` [Example 23, 1-(Cyclopentyl)methyl-5-ethyl-6-(3,5-dimethylbenzoyl)-2,4-pyrimidinedione], in data set [1] (setting [6]), the S.I. is on record as > 384,615. The CD50 in data set [2] (setting [6]) is greater than 100.
Regarding `Cc1cc(C)cc(Oc2c(C(C)C)c(=O)[nH]c(=O)n2CCC2C=CCC2)c1` (centres unmarked) [Example 42, 1-[2-(Cyclopent-2-en-1-yl)ethyl]-5-isopropyl-6-(3,5-dimethylphenoxy)-2,4-pyrimidinedione], the S.I. in data set [1] (setting [7]) is 2,353. In data set [2] (setting [7]), this molecule gave a CD50 of 7.53.
`Cc1cc(C)cc(C(=O)c2c(C(C)C)c(=O)[nH]c(=O)n2CC2CC=CC2)c1` [Example 17, 1-[(Cyclopent-3-en-1-yl)methyl]-5-isopropyl-6-(3,5-dimethylbenzoyl)-2,4-pyrimidinedione]: in data set [1] (setting [5]), the S.I. is recorded as 3,615. Besides, the CD50 in data set [2] (setting [5]) is recorded as 19.16.
As for `CCc1c(C(=O)c2cc(C)cc(C)c2)n(CCC2C=CCC2)c(=O)[nH]c1=O` (centres unmarked) [Example 40, 1-{2-(Cyclopent-2-en-1-yl)ethyl]-5-ethyl-6-(3,5-dimethylbenzoyl)-2,4-pyrimidinedione], the S.I. in data set [1] (setting [7]) is recorded as > 27,346. In data set [2] (setting [7]), this molecule showed a CD50 of 7.11.
`Cc1cc(C)cc(C(=O)c2c(C(C)C)c(=O)[nH]c(=O)n2CC2CCCC2)c1` [Example 22, 1-(Cyclopentyl)methyl-5-isopropyl-6-(3,5-dimethylbenzoyl)-2,4-pyrimidinedione] registered a CD50 in data set [2] (setting [3]) of 9.97.
In the case of `CCc1c(C(=O)c2cc(C)cc(C)c2)n(CCC2=CCCC2)c(=O)[nH]c1=O` [Example 35, 1-[2-(Cyclopent-1-en-1-yl)ethyl]-5-ethyl-6-(3,5-dimethylbenzoyl)-2,4-pyrimidinedione], the S.I. in data set [1] (setting [6]) was 9,958. The CD50 in data set [2] (setting [6]) was determined as 28.58.
Turning to `CCc1c(Oc2cc(C)cc(C)c2)n(CC2=CCCC2CO)c(=O)[nH]c1=O` (centres unmarked) [Example 19, 1-[(5-Hydroxymethylcyclopent-1-en-1-yl)methyl]-5-ethyl-6-(3,5-dimethyphenoxy)-2,4-pyrimidinedione], the S.I. in data set [1] (no run marker) is 1,384. In data set [2] (no run marker), this molecule came in with a CD50 of 55.37.
For the molecule `CCc1c(Oc2cc(C)cc(C)c2)n(CC2CC=CC2)c(=O)[nH]c1=O` [Example 14, 1-[(Cyclopent-3-en-1-yl)methyl]-5-ethyl-6-(3,5-dimethylphenoxy)-2,4-pyrimidinedione], the S.I. in data set [1] (setting [3]) is on record as 400,238. For the same molecule, in data set [2] (setting [3]), the CD50 stood at 16.81.
For `Cc1cc(C)cc(Oc2c(C(C)C)c(=O)[nH]c(=O)n2CC2CC=CC2)c1` [Example 15, 1-[(Cyclopent-3-en-1-yl)methyl]-5-isopropyl-6-(3,5-dimethylphenoxy)-2,4-pyrimidinedione], the S.I. in data set [1] (setting [5]) is 1,624. In addition, the CD50 in data set [2] (setting [5]) amounted to 10.07.
Take `Cc1cc(C)cc(Oc2c(C(C)C)c(=O)[nH]c(=O)n2CC2CCCC2)c1` [Example 21, 1-(Cyclopentyl)methyl-5-isopropyl-6-(3,5-dimethylphenoxy)-2,4-pyrimidinedione]: in data set [1] (setting [3]), the S.I. is on record as 3,089. The CD50 in data set [2] (setting [3]) amounted to 10.04.
As to `CCc1c(Sc2cc(C)cc(C)c2)n(CC2CC=CC2)c(=O)[nH]c1=O` [Example 2, 1-[(Cyclopent-3-en-1-yl)methyl]-5-ethyl-6-(3,5-dimethylphenylthio)-2,4-pyrimidinedione], the S.I. in data set [1] (no run marker) is given as 60,930. In addition, the CD50 in data set [2] (no run marker) came to 7.86.
Consider `CCc1c(Oc2cc(C)cc(C)c2)n(CC2=CCC(CO)C2)c(=O)[nH]c1=O` (centres unmarked) [Example 18, 1-[(4-Hydroxymethylcyclopent-1-en-1-yl)methyl]-5-ethyl-6-(3,5-dimethyl-phenoxy)-2,4-pyrimidinedione], for which the S.I. in data set [1] (no run marker) is given as 1,131. The CD50 in data set [2] (no run marker) is listed as 12.78.
In the case of `CCc1c(C(=O)c2cc(C)cc(C)c2)n(CCC2CC=CC2)c(=O)[nH]c1=O` [Example 36, 1-[2-(Cyclopent-3-en-1-yl)ethyl]-5-ethyl-6-(3,5-dimethylbenzoyl)-2,4-pyrimidinedione], the S.I. in data set [1] (setting [6]) was 30,294. In data set [2] (setting [6]), the CD50 is reported as 10.30.
Regarding `Cc1cc(C)cc(Sc2c(C(C)C)c(=O)[nH]c(=O)n2CC2=CCC(CO)C2)c1` (centres unmarked) [Example 9, 1-[(4-Hydroxymethylcyclopent-1-en-1-yl)methyl]-5-isopropyl-6-(3,5-di-methylphenylthio)-2,4-pyrimidinedione], the S.I. in data set [1] (no run marker) was 16,785. Further, the CD50 in data set [2] (no run marker) was 8.51.
For the molecule `CCc1c(Sc2ccccc2)n(CC2CC2(CO)CO)c(=O)[nH]c1=O` (centres unmarked) [Example 48, 1-[2-Bis(hydroxymethyl)cyclopropane-1-yl]methyl-5-ethyl-6-phenylthio-2,4-pyrimidinedione], the S.I. in data set [1] (setting [4]) amounted to 923. In data set [2] (setting [4]), this molecule gave a CD50 of 96.95.
`Cc1cc(C)cc(C(=O)c2c(C(C)C)c(=O)[nH]c(=O)n2CCC2CC=CC2)c1` [Example 37, 1-[2-(Cyclopent-3-en-1-yl)ethyl]-5-isopropyl-6-(3,5-dimethylbenzoyl)-2,4-pyrimidinedione]: the S.I. in data set [1] (setting [6]) was 13,377. For the same molecule, the CD50 in data set [2] (setting [6]) is on record as 9.23.
For `CC(C)c1c(Sc2ccccc2)n(CC2CC2(CO)CO)c(=O)[nH]c1=O` (centres unmarked) [Example 52, 1-[2-Bis(hydroxymethyl)cyclopropane-1-yl]methyl-5-isopropyl-6-phenylthio-2,4-pyrimidinedione], the S.I. in data set [1] (setting [4]) is 1,496. In addition, the CD50 in data set [2] (setting [4]) is listed as 104.12.
As to `CCc1c(Sc2cc(C)cc(C)c2)n(CC2CC2(CO)CO)c(=O)[nH]c1=O` (centres unmarked) [Example 49, 1-[2-Bis(hydroxymethyl)cyclopropane-1-yl]methyl-5-ethyl-(3,5-dimethylphenylthio)-2,4-pyrimidinedione], in data set [1] (setting [4]), the S.I. is listed as 18,271. In addition, the CD50 in data set [2] (setting [4]) worked out at 21.56.
With `CCc1c(C(=O)c2cc(C)cc(C)c2)n(CC2CC=CC2)c(=O)[nH]c1=O` [Example 16, 1-[(Cyclopent-3-en-1-yl)methyl]-5-ethyl-6-(3,5-dimethylbenzoyl)-2,4-pyrimidinedione], in data set [2] (setting [4]), the CD50 is reported as 1.52.
